Among the data in patent publication US9920061B2, “Imidazo[1,5-A]pyrimidinyl carboxamide compounds and their use in the treatment of medical disorders” (Lysosomal Therapeutics Inc., priority 2016, dated 2018) are solubility and activation values, retold here.

Data set [1] in a line: Compound solubility in water. It is filed as physicochemical.
For data set [2], the target named is T1, glucocerebrosidase (Gcase) (Homo sapiens, UniProt P04062).
T1 sequence (P04062 40-536): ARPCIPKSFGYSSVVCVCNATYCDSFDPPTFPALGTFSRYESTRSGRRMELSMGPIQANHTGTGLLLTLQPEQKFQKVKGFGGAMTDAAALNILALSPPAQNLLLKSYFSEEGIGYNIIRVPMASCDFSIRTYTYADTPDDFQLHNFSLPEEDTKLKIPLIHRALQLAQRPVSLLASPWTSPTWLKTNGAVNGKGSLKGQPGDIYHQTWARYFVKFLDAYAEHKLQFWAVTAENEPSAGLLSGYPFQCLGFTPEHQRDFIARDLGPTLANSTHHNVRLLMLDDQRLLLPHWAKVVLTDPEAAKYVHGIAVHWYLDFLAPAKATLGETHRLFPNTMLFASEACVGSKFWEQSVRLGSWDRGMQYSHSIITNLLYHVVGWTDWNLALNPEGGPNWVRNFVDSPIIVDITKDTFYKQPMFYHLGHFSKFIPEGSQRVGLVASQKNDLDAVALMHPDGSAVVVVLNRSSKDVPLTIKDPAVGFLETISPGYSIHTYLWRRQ
The data set is described as follows: Glucocerebrosidase (Gcase) activation assay, 4-methylumbelliferyl-beta-D-glucopyranoside substrate, with saposin C. Type of data set: biochemical. The method, then:
The ability of exemplary compounds to activate glucocerebrosidase (Gcase) was measured.
A 484 μL aliquot of a 1.0 mg/mL solution of phosphatidylserine (PS) (Sigma P7769) in chloroform was evaporated under a stream of nitrogen for 1 hour. The lipid film was dissolved over 4 minutes of vigorous vortexing in 40 mL of 176 mM K2HPO4/50 mM citric acid (pH 4.7) containing 7.5 μL of triton X-100, resulting in a mixed micellar preparation with a composition of 0.32 mM triton and 0.37 mol % PS. 4-Methylumbelliferyl-beta-D-glucopyranoside (ACROS-337025000) was dissolved in the micellar solution to a final concentration of 2 mM for use as the reaction substrate.
Test compounds were diluted to the desired concentrations with dimethylsulfoxide (DMSO) from 10 mM stocks, and 0.41 μL of the DMSO compound mixture was added to 100 μL of micellar solution containing 10 nM GCase and 100 nM saposin C (Enzo ALX-201-262-C050). Pre-incubation was allowed to occur for 30 minutes at room temperature, after which the reaction was initiated by combining 25 μL of substrate solution with 25 μL of compound/GCase/saposin mixture. The reaction proceeded for 15 minutes at room temperature and was stopped by adding 150 μL of 1M glycine, pH 12.5. The endpoint of the reaction was monitored by measuring fluorescence intensity (excitation: 365 nm; emission: 440 nm) on a SpectraMax i3 instrument (Molecular Devices). Test compounds were screened at 1.0 and 0.1 μM final concentration, and subsequent 8-point dose response curves were obtained using 3-fold dilutions from a maximum final concentration of […].

Setting [3] is: 0.1 μM test compound, read-out: Percent Gcase Activation 0.1 μM Test Compound.
Where [4] appears, read: 1 μM test compound, read-out: Percent Gcase Activation 1 μM Test Compound.
The mark [5] stands for this setting: test compound at 0.1 μM, read-out: Percent Gcase Activation, 0.1 μM Test Compound.
Where [6] appears, read: test compound at 1.0 μM, read-out: Percent Gcase Activation, 1 μM Test Compound.

As a reminder, the solubility is how much of the substance goes into solution per volume.

≈ marks a conversion by molar mass, not a printed value. Where two headings read alike, the source gives them in different places. A value given as a limit tells only on which side of the number the result lay.

The compound `Cc1cc(-c2cnccn2)nc2c(C(=O)NC(C)(C)C3CC3)ncn12` [III-56] displayed a solubility in data set [1] of 16.2 µg/mL (≈ 48.2 µM). Besides, the activation at 0.1 µM in data set [2] (setting [3]) is less than 10%. Besides, in data set [2] (setting [4]), the activation at 1 µM lay in the range of 30 to 60%.

Regarding `Cc1cc(-c2ccc3c(c2)OCO3)nc2c(C(=O)N[C@H](C)C(F)(F)F)ncn12` [IV-77], in data set [1] (in water), the solubility amounted to 1.3 µg/mL (≈ 3.31 µM). Moreover, the activation at 0.1 µM in data set [2] (setting [5]) is more than 20%. For the same compound, the activation at 1 µM in data set [2] (setting [6]) is more than 60%.

Consider `COc1cccc(-c2cc(C)n3cnc(C(=O)N[C@@H](C)C4CC4)c3n2)c1C#N` [IV-68], for which the concentration in solution in data set [1] (in water) (solubility) was 0.7 µg/mL (≈ 1.86 µM). Further, the activation at 0.1 µM in data set [2] (setting [5]) was more than 20%. In data set [2] (setting [6]), the activation at 1 µM was more than 60%.

The compound `Cc1cc(-c2cccc(OC3CC3)c2)nc2c(C(=O)NC(C)C(F)(F)F)ncn12` (stereo not drawn) [III-169] had a solubility in data set [1] of 0.7 µg/mL (≈ 1.73 µM). For the same compound, in data set [2] (setting [3]), the activation at 0.1 µM was more than 20%. Besides, the activation at 1 µM in data set [2] (setting [4]) was more than 60%.

Consider `CCOc1cccc(-c2cc(C)n3cnc(C(=O)NC(C)C(F)(F)F)c3n2)c1` (stereo not drawn) [III-168], for which the concentration in solution in data set [1] (solubility) was 1.4 µg/mL (≈ 3.57 µM). Moreover, the activation at 0.1 µM in data set [2] (setting [3]) was more than 20%. Also, the activation at 1 µM in data set [2] (setting [4]) was more than 60%.

As for `Cc1cc(-c2ccc(F)c(F)c2)nc2c(C(=O)NC(C)C3CC3)ncn12` (stereo not drawn) [III-85], the solubility in data set [1] was 1.2 µg/mL (≈ 3.37 µM). The activation at 0.1 µM in data set [2] (setting [3]) was more than 20%. Also, the activation at 1 µM in data set [2] (setting [4]) is more than 60%.

The compound `Cc1cc(-c2ccccn2)nc2c(C(=O)NC(C)(C)C3CC3)ncn12` [III-42] registered a solubility in data set [1] of 4 µg/mL (≈ 11.9 µM). The activation at 0.1 µM in data set [2] (setting [3]) is less than 10%. The activation at 1 µM in data set [2] (setting [4]) is more than 60%.

In data set [1] (in water), `Cc1cc(Oc2cccnc2)nc2c(C(=O)N[C@@H](C)C3CC3)ncn12` [IV-114] displayed a solubility of 32.8 µg/mL (≈ 97.2 µM). Besides, the activation at 0.1 µM in data set [2] (setting [5]) is less than 10%. For the same compound, the activation at 1 µM in data set [2] (setting [6]) was less than 30%.

Take `Cc1cc(-c2cccc(Cl)c2)nc2c(C(=O)NC(C)(C)C3CC3)ncn12` [III-162]: in data set [1], the concentration in solution (solubility) came to 0.2 µg/mL (≈ 0.542 µM). Moreover, in data set [2] (setting [3]), the activation at 0.1 µM is more than 20%. Further, the activation at 1 µM in data set [2] (setting [4]) was more than 60%.

In data set [1] (in water), `CCc1cc(N2CCN(CC(F)(F)F)C2=O)nc2c(C(=O)NC(C3CC3)C(F)(F)F)ncn12` (stereo not drawn) [IV-90] returned a solubility of 25.6 µg/mL (≈ 53.5 µM). Moreover, the activation at 0.1 µM in data set [2] (setting [5]) was in the range of 10 to 20%. The activation at 1 µM in data set [2] (setting [6]) was more than 60%.

Turning to `C#CC(C)(C)NC(=O)c1ncn2c(C)cc(-c3cccc(F)c3)nc12` [III-164], in data set [1], the solubility worked out at 4.5 µg/mL (≈ 13.4 µM). Moreover, the activation at 0.1 µM in data set [2] (setting [3]) was more than 20%. The activation at 1 µM in data set [2] (setting [4]) is more than 60%.

Consider `Cc1cc(-c2ccoc2)nc2c(C(=O)NC(C3CC3)C(F)(F)F)ncn12` (stereo not drawn) [IV-84], for which the concentration in solution in data set [1] (in water) (solubility) came to 3.2 µg/mL (≈ 8.78 µM). In addition, the activation at 0.1 µM in data set [2] (setting [5]) is more than 20%. Further, the activation at 1 µM in data set [2] (setting [6]) was more than 60%.

Turning to `COc1cccc(-c2cc(C)n3cnc(C(=O)N[C@@H](C)C(F)(F)F)c3n2)c1` [IV-22], the solubility in data set [1] (in water) stood at 1.7 µg/mL (≈ 4.49 µM). Also, in data set [2] (setting [5]), the activation at 0.1 µM is more than 20%. Besides, the activation at 1 µM in data set [2] (setting [6]) was more than 60%.

As for `Cc1cc(N2CCCC(F)(F)C2)nc2c(C(=O)NC(C3CC3)C(F)(F)F)ncn12` (stereo not drawn) [IV-113], the concentration in solution in data set [1] (in water) (solubility) came to 17.2 µg/mL (≈ 41.2 µM). Besides, the activation at 0.1 µM in data set [2] (setting [5]) was more than 20%. Further, in data set [2] (setting [6]), the activation at 1 µM was more than 60%.

For `Cc1cc(-c2ncc[nH]2)nc2c(C(=O)NC(C)(C)C3CC3)ncn12` [III-117], in data set [1], the concentration in solution (solubility) came to 20.5 µg/mL (≈ 63.2 µM). For the same compound, in data set [2] (setting [3]), the activation at 0.1 µM is less than 10%. Further, in data set [2] (setting [4]), the activation at 1 µM is less than 30%.

`COc1cc(F)cc(-c2cc(C)n3cnc(C(=O)N[C@@H](C)C4CC4)c3n2)c1` [IV-56]: the solubility in data set [1] (in water) turned out to be 3.7 µg/mL (≈ 10 µM). In addition, the activation at 0.1 µM in data set [2] (setting [5]) was more than 20%. Further, in data set [2] (setting [6]), the activation at 1 µM is more than 60%.

As to `Cc1cc(-c2cc(C#N)cs2)nc2c(C(=O)NC(C3CC3)C(F)(F)F)ncn12` (stereo not drawn) [IV-85], in data set [1] (in water), the concentration in solution (solubility) was 5.9 µg/mL (≈ 14.6 µM). For the same compound, the activation at 0.1 µM in data set [2] (setting [5]) is more than 20%. Moreover, the activation at 1 µM in data set [2] (setting [6]) was more than 60%.

On to `Cc1cc(-c2ccsc2C#N)nc2c(C(=O)NC(C3CC3)C(F)(F)F)ncn12` (stereo not drawn) [IV-88], for which, in data set [1] (in water), the solubility was found to be 0.3 µg/mL (≈ 0.74 µM). Also, in data set [2] (setting [5]), the activation at 0.1 µM was more than 20%. Besides, the activation at 1 µM in data set [2] (setting [6]) was more than 60%.
